# Assay results taken from US6919372B1, “Sustained release pharmaceutical compositions” (Yamanouchi Pharmaceutical Co., Ltd., priority 1997, dated 2005).
# Structures can show the parent of a compound that is named as a salt.
# Legend:
# Format in all cases: physicochemical
# [1] = Test 2: octanol/phosphate buffer partition coefficient of BPS with various cations; details: for PC of BPS, Excess × 20: cation added to give charges 20 times more; for PC of BPS, Equimolar amount: cation added to give equal charge; for effect of added compound on the partition coefficient of BPS (in words): octanol/phosphate buffer pH 7, compared to no ionic compound added
# Protocol: (§1) BPS was dissolved in phosphate buffer solution having pH of 5 to 8 in a concentration of 240 μg/ml. Various cations were added to the mixtures to give equivalent charge to that of BPS or 5 times or 20 times more than that of BPS. The same volume of octanol as that of the aqueous phase was added to the mixture followed by shaking at 37° C. for an hour. After centrifugation, the concentration of the pharmaceutically active substance in the aqueous phase was measured to calculate the partition coefficient.
# (§2) partition coefficient=concentration of the pharmaceutically active substance in the octanol phase/concentration of the pharmaceutically active substance in the aqueous phase
# A variety of cations were examined with their effect if these cations would affect the partition coefficient of BPS in octanol/phosphate buffer solution (pH 7).
# The pharmaceutically active substance was dissolved in an aqueous phase in a concentration of 240 μg/ml. Various cations were added to the solution to give equal charge to that of the pharmaceutically active substance or charges 20 times more than that of the substance. Then the same procedure as in Test 1 was applied to calculate the partition coefficient.
# [2] = Test 3: in vitro release test of gel preparation using various cations; details: 10 ml phosphate buffer solution (pH 7.4) at 37° C.
# Protocol: Each of the gel preparations obtained in Examples 1 to 9 and Comparative Examples 1 to 3 was evaluated, respectively, with regard to the release of the active substance in 10 ml of a phosphate buffer solution (pH 7.4) at 37° C.
# [3] = Test 1: effect of ratio of benzalkonium chloride added and pH on octanol/phosphate buffer partition coefficient of BPS
# Protocol: as §1, §2
# [4] = octanol/phosphate buffer pH 7, 37° C., BPS 240 μg/ml
Compound,"PC of BPS, Excess × 20 [1, 4]","PC of BPS, Equimolar amount [1, 4]",effect of added compound on the partition coefficient of BPS (in words) [1],further results
CCCCCCCC[N+](C)(C)Cc1ccccc1.[Cl-] [Octyldimethylbenzylammonium chloride],568,60.9,,
O=S(=O)([O-])[O-].[Mg+2] [magnesium sulfate],,,,release of the active substance from gel preparation [2]: no delayed release
CCCCCCCCCCCC[N+](C)(C)Cc1ccccc1.[Cl-] [Lauryldimethylbenzylammonium chloride],1220,71.2,,
"[Cl-].[Cl-].[Mg+2] [magnesium chloride, reference compound]",,,no increase,
CCCCCCCCCCCC[N+](C)(C)C.[Cl-] [Lauryltrimethylammonium chloride],985,83.5,increase,
"CCN(CC)CC(=O)Nc1c(C)cccc1C [Lidocaine hydrochloride, reference compound]",37.5,17.1,,
CCCCCCCCCCCCCCCCCCCCCC[N+](C)(C)C.[Cl-] [Behenyltrimethylammonium chloride],,59.5,,
[Cl-].[Na+] [sodium chloride],,,,partition coefficient of BPS when sodium chloride was added to make the solution isotonic ([3]; 20 times of equivalent molar ratio of benzalkonium chloride included): decreased
"CCCNC(C)(C)COC(=O)c1ccccc1 [Meprylcaine hydrochloride, reference compound]",53.3,17.7,increase,
CCCCCCCCCCCCCC[N+](C)(C)Cc1ccccc1.[Cl-] [Myristyldimethylbenzylammonium chloride],1210,64.5,,
CCCCCCCCCCCCCCCCCC[N+](C)(C)C.[Cl-] [Stearyltrimethylammonium chloride],995,83.4,,
CC(=O)O.CCCCCCCC/C=C\CCCCCCCCN [Oleylamine acetate],473,30.4,,
CC(C)(C)CC(C)(C)c1ccc(OCCOCC[N+](C)(C)Cc2ccccc2)cc1 [Benzethonium chloride],1180,70.8,,
"CCCCCCCCCCCCOS(=O)(=O)[O-].[Na+] [sodium lauryl sulfate, reference compound]",,,no change,
"CC#CCC(C)[C@H](O)/C=C/[C@@H]1[C@H]2c3cccc(CCCC(=O)O)c3O[C@H]2C[C@H]1O (relative stereo) [BPS, (±)-(1R*,2R*,3aS*,8bS*)-2,3,3a,8b-tetrahydro-2-hydroxy-1-[(e)-(3S*)-3-hydroxy-4-methyl-1-octen-6-ynyl]-1H-cyclopenta[b]benzofuran-5-butanoic acid, reference compound]",,,,"partition coefficient of BPS as the pH increased ([3]; phosphate buffer pH 5 to 8, FIG. 1): decreased as the pH increased; PC of BPS, no cation added ([1]; octanol/phosphate buffer pH 7, 37° C., BPS 240 μg/ml, cation added: None): 16.2"
"Cl.N=C(N)NCCC[C@H](N)C(=O)O [arginine hydrochloride, reference compound]",,,no increase,release of the active substance from gel preparation [2]: no delayed release
sorbitan sesquioleate [reference compound],,,no change,
CCCCCCCCCCCCCCCCCC[N+](C)(C)Cc1ccccc1.[Cl-] [Stearyldimethylbenzylammonium chloride],1350,62.3,,
CC[N+](CC)(CC)Cc1ccccc1.[Cl-] [Triethylbenzylammonium chloride],,,increase,
CCCCCCCCCCCCCCCC[N+](C)(C)C.[Cl-] [Cetyltrimethylammonium chloride],935,91.6,,
CC(=O)O.CCCCCCCCCCCCCCCCCCN [Stearylamine acetate],158,32.6,,
CCCC[N+](CCCC)(CCCC)Cc1ccccc1.[Cl-] [Tributylbenzylammonium chloride],140,24.5,,
protamine sulfate [reference compound],,,did not affect,
CCCCCCCCCCCC[n+]1ccccc1.[Cl-] [Laurylpyridinium chloride],1200,75.0,,
